Where two headings read alike, the source gives them in different places.
Legend:
AChE (electric eel) = AChE (electric eel) (Electrophorus electricus, UniProt O42275); assay: biochemical; details: for inhibition at 100 µM: read-out: AChE (%) percentage of inhibition
Procedure: (§1) The in vitro testing of ChEs inhibition was performed according to the modified Ellman’s method. […] The percentage of inhibition activity was defined for all compounds.
(§2) The in vitro testing of ChEs inhibition was performed on 96-well microplate reader, Synergy^TM HT, BioTek, Vinnoski, USA.
(§3) The method originally developed by Ellman was used with slight modifications. The measurement of AChE and BuChE inhibitory activity was performed in a 96-well microplate reader. 170 μL of 0.1 M phosphate buffer (pH 7.0), 20 μL of AChE (electric eel) or BuChE (equine serum) in phosphate solution (2.3 U/mL), 20 μL of the tested compound in methanol and 20 μL of 10 mM (5,5′-dithiobis(2-nitrobenzoic acid), DTNB, Ellman’s Reagent) were mixed and incubated at 37 °C for 15 min.
Then 20 μL of 7.5 mM acetylthiocholine iodide (ATCI)/butyrylthiocholine iodide (BTCI) were added. […] Each measurement was repeated five times (n = 5). There was prepared one set of mixtures as a control (Abscontrol), which contained an equal volume of methanol instead of the tested samples.
(§4) The percentage ability to inhibit AChE and BuChE at the concentration 100 µM was tested for all compounds. The inhibitory rates IR (%) were calculated according to the Equation (1). IR = [1 - (Abssample/Abscontrol)] × 100(1)

BuChE (equine serum) = target: T1, BuChE (equine serum) (Equus caballus, UniProt P81908); assay: BuChE inhibition, modified Ellman's method; type: biochemical; details: for inhibition at 100 µM / BuChE (%) percentage of inhibition: mean ± SD (n = 5); for IC50: n = 3 per concentration
T1 construct: 20 μL of AChE (electric eel) or BuChE (equine serum) in phosphate solution (2.3 U/mL); from tissue; host or cells: equine serum
Procedure: as §1, §2, §3
Then 20 μL of 7.5 mM acetylthiocholine iodide (ATCI)/butyrylthiocholine iodide (BTCI) were added. […] […] There was prepared one set of mixtures as a control (Abscontrol), which contained an equal volume of methanol instead of the tested samples.
as §4
The values were calculated by non-linear regression of the concentration-response curve using GraphPad Prism 5.0 software, according to the Equation (2):Y = Ymin + (Ymax − Ymin)/(1 + [(X^HillSlope)/(IC50^HillSlope)])(2)

[1] = at 100 µM, read-out: BuChE (%) percentage of inhibition
[2] = read-out: BuChE (%) percentage of inhibition, at 100 µM

Sequence of AChE (electric eel) (O42275 24-633): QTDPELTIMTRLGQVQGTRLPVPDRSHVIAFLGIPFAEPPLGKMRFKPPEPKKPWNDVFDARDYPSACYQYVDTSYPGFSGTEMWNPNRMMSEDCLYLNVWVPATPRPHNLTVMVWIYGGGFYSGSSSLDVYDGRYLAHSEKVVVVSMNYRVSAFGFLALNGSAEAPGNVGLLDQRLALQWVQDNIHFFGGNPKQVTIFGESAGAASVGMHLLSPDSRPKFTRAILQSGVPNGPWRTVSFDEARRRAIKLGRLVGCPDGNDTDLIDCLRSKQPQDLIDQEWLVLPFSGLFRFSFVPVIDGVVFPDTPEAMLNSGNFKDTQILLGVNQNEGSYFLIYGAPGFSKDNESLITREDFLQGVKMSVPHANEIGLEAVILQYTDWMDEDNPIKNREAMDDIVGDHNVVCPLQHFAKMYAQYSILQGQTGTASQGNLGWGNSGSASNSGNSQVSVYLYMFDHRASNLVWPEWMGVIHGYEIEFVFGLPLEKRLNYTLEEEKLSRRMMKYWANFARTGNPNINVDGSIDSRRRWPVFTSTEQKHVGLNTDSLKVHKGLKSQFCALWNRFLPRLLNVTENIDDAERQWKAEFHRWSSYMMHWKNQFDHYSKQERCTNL
T1 sequence (P81908 whole entry): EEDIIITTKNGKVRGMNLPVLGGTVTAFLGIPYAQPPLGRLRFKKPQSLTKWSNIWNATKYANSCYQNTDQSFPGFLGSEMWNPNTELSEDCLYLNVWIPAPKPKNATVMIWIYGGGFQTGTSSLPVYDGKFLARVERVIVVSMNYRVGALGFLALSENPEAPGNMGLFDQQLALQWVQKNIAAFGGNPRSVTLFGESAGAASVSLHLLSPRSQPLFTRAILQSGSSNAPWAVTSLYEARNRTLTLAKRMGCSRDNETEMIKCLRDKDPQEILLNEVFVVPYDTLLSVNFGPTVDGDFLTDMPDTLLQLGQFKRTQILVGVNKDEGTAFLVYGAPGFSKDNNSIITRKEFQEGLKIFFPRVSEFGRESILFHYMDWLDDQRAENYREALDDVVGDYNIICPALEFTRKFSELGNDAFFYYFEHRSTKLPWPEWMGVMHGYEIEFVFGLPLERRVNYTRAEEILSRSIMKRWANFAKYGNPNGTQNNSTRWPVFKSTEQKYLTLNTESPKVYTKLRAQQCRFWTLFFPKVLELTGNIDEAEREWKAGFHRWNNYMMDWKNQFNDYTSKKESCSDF

SMILES	IC50 (AChE (electric eel)) [µM]	inhibition at 100 µM (AChE (electric eel); at 100 µM, mean ± SD (n = 5)) [%]	inhibition at 100 µM (BuChE (equine serum); [1]) [%]	IC50 (BuChE (equine serum)) [µM]	inhibition at 100 µM (AChE (electric eel)) [%]	BuChE (%) percentage of inhibition (BuChE (equine serum); at 100 µM) [%]	inhibition at 100 µM (BuChE (equine serum); [2]) [%]	AChE (%) percentage of inhibition (AChE (electric eel); at 100 µM, mean ± SD (n = 5)) [%]
CCCN(C)CCC(=O)c1ccc(NC(=O)OC)cc1 [Compound 14, (3-{4-[(methoxycarbonyl)amino]phenyl}-3-oxopropyl)(methyl)propylazanium chloride]	> 100	42.2 ± 1.3	22.3 ± 4.6	> 100				
COc1ccc2c3c1O[C@H]1C[C@@H](O)C=C[C@@]31CCN(C)C2 [Galantamine, reference compound]			62.1 ± 1.4					
CCCCN(C)CCC(=O)c1ccc(NC(=O)OC)cc1 [Compound 7, Butyl(3-{4-[(methoxycarbonyl)amino]phenyl}-3-oxopropyl)methylazanium chloride]	> 100	38 ± 4.2	20.4 ± 5.8	> 100				
CCCCOC(=O)Nc1ccc(C(=O)CCN(CC)CCCC)cc1 [Compound 13, (3-{4-[(butoxycarbonyl)amino]phenyl}-3-oxopropyl)(butyl)ethylazanium chloride]	> 100	33.5 ± 3.4	48.7 ± 2.6	> 100				
CCCN(C)CCC(=O)c1ccc(NC(=O)OCC)cc1 [Compound 15, (3-{4-[(ethoxycarbonyl)amino]phenyl}-3-oxopropyl)(methyl)propylazanium chloride]	> 100	45.3 ± 3.4	36.8 ± 2.1	> 100				
CCCOC(=O)Nc1ccc(C(=O)CCN2CCOCC2)cc1 [Compound 5, 4-(3-oxo-3-{4-[(propoxycarbonyl)amino]phenyl}propyl)morpholin-4-ium chloride]	> 100	25.9 ± 3.2	14.4 ± 2.4	> 100				
CCOC(=O)Nc1ccc(C(=O)CCN2CCOCC2)cc1 [Compound 4, 4-(3-{4-[(ethoxycarbonyl)amino]phenyl}-3-oxopropyl)morpholin-4-ium chloride]	> 100	16.1 ± 4.2	17.8 ± 3.4	> 100				
CCN(C)C(=O)Oc1cccc([C@H](C)N(C)C)c1 [Rivastigmine, reference compound]			72.9 ± 1.5		54.8 ± 4.4			
CCOC(=O)Nc1ccc(C(=O)CCN2CCCCC2)cc1 [Compound 2, 1-(3-{4-[(ethoxycarbonyl)amino]phenyl}-3-oxopropyl)piperidin-1-ium chloride]	8.58	77.8 ± 0.4	15.7 ± 1.9	> 100				
COC(=O)Nc1ccc(C(=O)CCN2CCCCC2)cc1 [Compound 1, 1-(3-{4-[(methoxycarbonyl)amino]phenyl}-3-oxopropyl)piperidin-1-ium chloride]	12.7	74.1 ± 0.9	10 ± 0.8	> 100				
CCCCN(C)CCC(=O)c1ccc(NC(=O)OCC)cc1 [Compound 8, Butyl(3-{4-[(ethoxycarbonyl)amino]phenyl}-3-oxopropyl)methylazanium chloride]	> 100	23.5 ± 2.2	4.7 ± 3	> 100				
CCCCN(C)CCC(=O)c1ccc(NC(=O)OCCC)cc1 [Compound 9, Butyl(methyl)(3-oxo-3-{4-[(propoxycarbonyl)amino]phenyl}propyl)azanium chloride]	> 100	44.5 ± 1.1	29 ± 2.9	> 100				
CCCCN(CC)CCC(=O)c1ccc(NC(=O)OCCC)cc1.Cl [Compound 12, Butyl(ethyl)(3-{4-[(propoxycarbonyl)amino]phenyl}-3-oxopropyl)azanium chloride]	> 100	38.4 ± 1.3		> 100		51.1 ± 3.3	> 50	
CCCCCN(C)CCC(=O)c1ccc(NC(=O)OCC)cc1.Cl [Compound 16, (3-{4-[(ethoxycarbonyl)amino]phenyl}-3-oxopropyl)(methyl)pentylazanium chloride]	> 100	> 50	46.3 ± 2	> 100				50.6 ± 1.8
CCCOC(=O)Nc1ccc(C(=O)CCN2CCCCC2)cc1 [Compound 3, 1-(3-oxo-3-{4-[(propoxycarbonyl)amino]phenyl}propyl)piperidin-1-ium chloride]	6.57	79.4 ± 0.3	21 ± 2.5	> 100				
CCCCN(CC)CCC(=O)c1ccc(NC(=O)OC)cc1 [Compound 10, Butyl(ethyl)(3-{4-[(methoxycarbonyl)amino]phenyl}-3-oxopropyl)azanium chloride]	> 100	23.6 ± 2.3	43.6 ± 3	> 100				
CCCCN(CC)CCC(=O)c1ccc(NC(=O)OCC)cc1.Cl [Compound 11, Butyl(3-{4-[(ethoxycarbonyl)amino]phenyl}-3-oxopropyl)ethylazanium chloride]		24.6 ± 1.9				51.0 ± 2.9	> 50	
CCOC(=O)Nc1ccc(C(=O)CCN(CC)CC)cc1 [Compound 6, (3-{4-[(ethoxycarbonyl)amino]phenyl}-3-oxopropyl)diethylazanium chloride]	> 100	42.2 ± 4.3	34.2 ± 2.6	> 100				
